Patent publication US20050203063A1, “Proteasome pathway inhibitors and related methods” (priority 2003, published 2005)
“Also recorded” adds a separate entry of the source. Read-outs that look alike come from different tables or passages of the source.

How the values were obtained:
Format in all cases: biochemical
[1] = system: cyclin-luciferase (cyc-luc) turnover, APC/C activation; experiment: cyc-luc turnover in interphase Xenopus extracts induced to enter mitosis by non-degradable cyclin B; conditions: 200 μM compound; added to interphase extracts then induced to enter mitosis; average of three measurements
Description: (§1) FIG. 1. Functional classification of inhibitors. Compounds that scored in the initial screen were reacquired as dry powders and retested in Xenopus extracts in 4 assays at 200 μM concentration (32) as described (6). […] (A) Compounds and cyclin-luciferase were added to interphase extracts, which were then induced to enter mitosis by addition of non-degradable cyclin B. Percent inhibition of cyc-luc turnover by each compound is coded according to the grayscale shown at the bottom of the figure; specific values are available in Table 1. (B) Extracts were pre-treated with non-degradable cyclin B to allow entry into mitosis prior to addition of test compound and reporter protein. (C) Interphase extracts were treated by addition of recombinant Cdh1 to activate cyc-luc turnover. (D) Interphase extracts were treated with recombinant axin to induce turnover of β-catenin-luciferase.
(§2) The “Cmpd” column corresponds to the numbers used in FIG. 1; “Class” refers to the class of inhibitor described in FIG. 1 and the text. Columns A-D show percent inhibition in the four assays described in FIG. 1. (A) Interphase extracts (B) Mitotic extracts (C) Interphase extracts stimulated with Cdh1 (D) Degradation of a β-catenin reporter protein in interphase extracts stimulated with recombinant axin. […] “ID#” refers to the identification number of the inhibitor obtained from the NCI (prefaced by NSC) or Chembridge (prefaced by C).
Extracts were rapidly thawed and diluted to a final concentration of 75% in extract buffer (XB) just prior to assay (XB; 100 mM KCl, 0.1 mM CaCl2, 1 mM MgCl2, 10 mM potassium HEPES, pH 7.7, 50 mM sucrose). Extracts were kept on ice and supplemented with 1 mg/ml bovine ubiquitin (Sigma) unless otherwise stated. Cyc-luc expressed in reticulocyte lysate was diluted 1/200 for most assays. High-throughput screening utilized the bacterially expressed and purified cyclin-luc fusion protein, which was added to extracts at a final concentration of 0.1 μg/ml. To induce entrance into mitosis, cyclin BΔ90 protein was added to a final concentration of 10 μg/ml. For the dose response analysis, inhibitors were purchased from Calbiochem (San Diego, Calif.) and dissolved in DMSO as 10 mM stocks. Cyclin-luciferase and cyclin BΔ90 were mixed with interphase extract and placed on ice. Inhibitors were then added to extracts to yield a final DMSO concentration of 1%. 10 μl aliquots of extract were distributed into 384-well white Cliniplates (Labsystems), and cell cycle progression was initiated by warming the samples to room temperature. After 60 minutes, 30 μl of luciferin reagent (20 mM tricine pH 7.8, 470 μM D-Luciferin [Molecular Probes]), 270 μM Coenzyme A, 0.1 mM EDTA, 33 mM DTT, and 530 μM ATP) was added using a multidrop dispenser (Labsystems). Luminescence was measured on an Analyst plate reader (LJL Biosystems). The values for 3 replicates were averaged. For the dose response analysis, percent inhibition was calculated as 100*(T−M)/(I−M) where T equals the test value for the inhibitor, M equals the value in a mitotic extract lacking inhibitor, and I equals the value in an interphase extract. For certain experiments, methylated ubiquitin was added to interphase extracts at a concentration of 1 mg/ml in the presence or absence of added unmodified ubiquitin (1 mg/ml) used as competitor. Cyclin-luciferase and cyclin BΔ90 were then added. After 60 minutes, the reactions were stopped and analyzed as described above.
Dry compounds were redissolved at 20 mM concentration in DMSO, or a 50:50 water:DMSO mixture in certain cases. These compounds were then diluted ten-fold in XB and mixed thoroughly. For the assay in FIG. 1A, chilled interphase extract was mixed with cyclin BΔ90 (10 μg/ml) and cyc-luc (0.1 μg/ml) in bulk and then 27 μl of extract was pipetted to each well of a chilled 384-well plate.

[2] = system: Cdh1-stimulated cyc-luc proteolysis (APC/C); experiment: cyc-luc turnover in interphase Xenopus extracts stimulated with recombinant Cdh1; conditions: 200 μM compound; negative values reflect stimulation of proteolysis
Description: as §1, §2
Dry compounds were redissolved at 20 mM concentration in DMSO, or a 50:50 water:DMSO mixture in certain cases. These compounds were then diluted ten-fold in XB and mixed thoroughly. For the assay in FIG. 1A, chilled interphase extract was mixed with cyclin BΔ90 (10 μg/ml) and cyc-luc (0.1 μg/ml) in bulk and then 27 μl of extract was pipetted to each well of a chilled 384-well plate. Three microliters of each compound (diluted in XB) was then added to each well, and then compounds mixed thoroughly. Plates were warmed to room temperature. After 70 minutes, 5 μl aliquots were transferred to another plate, and then 30 μl of luciferin reagent was added to each well and luminescence measured. Percent inhibition was calculated as described above. The reported values represent the average of three independent measurments. For the assay in FIG. 1B, interphase extracts were treated with 10 μg/cyclin B 90 for 50 minutes at room temperature and then chilled on ice. Cyc-luc was then added, and then 27 μl of extract was pipetted to each well of a chilled 384-well plate. Three microliters of each compound (diluted in XB) was then added to each well, and then compounds mixed thoroughly. Plates were warmed to room temperature. After 60 minutes, 5 μl aliquots were transferred to another plate, and then 30 μl of luciferin reagent was added to each well and luminescence measured. For the assay in FIG. 1C, recombinant Cdh1 (0.1 μg/ml) and cyc-luc were added to chilled interphase extracts. Extracts were then pipetted and compounds added as above. Plates were warmed to room temperature and incubated for three hours, following which luminescence was measured as above. For the assay in FIG. 1D, chilled interphase extracts received recombinant axin and beta-catenin-luciferase reporter as described (8). Extracts were aliquoted to chilled plates and compounds distributed as described above. Plates were warmed to room temperature, incubated for three hours, and luminescence measured.

[3] = molecular target: T1, 20S core peptidase activity (Saccharomyces cerevisiae, UniProt P25043+P30656+P38624); experiment: 20S core peptidase activity in native gel with fluorescent substrate
T1 construct: made in house; host or cells: S. cerevisiae cells expressing Flag-tagged PRE1
Description: FIG. 6. […] (A) Purified 26S proteasomes were preincubated with test compounds before being resolved on a native gel. Following electrophoresis, the gel was stained with Coomassie Blue. […] Same as (A), except that following electrophoresis, the gel was incubated with fluorescent substrate to determine peptidase activity, which was visualized using a UV transilluminator (9). […] (C) Untreated 26S proteasomes were resolved on a native gel. Following electrophoresis, the gel was incubated with the peptidase substrate in the presence of ubistatin.
26S proteasomes were purified from S. cerevisiae cells expressing a Flag-tagged proteasomal subunit (PRE1) essentially as described (28).

| Structure (SMILES) | percent inhibition of cyc-luc turnover, (A) Interphase extracts [1] | percent inhibition of cyc-luc turnover, (C) Interphase extracts stimulated with Cdh1 [2] | effect on 20S core peptidase activity [3] | effect on 20S core peptidase activity ([3]; listed as C92) |
| --- | --- | --- | --- | --- |
| CC(=O)Nc1ccc(SSc2ccc(NC(C)=O)c3cccnc23)c2ncccc12 [Compound 23] | 100% | 100% | without effect | – |
| O=C(Nc1ccc(/C=C/c2ccc(NC(=O)c3cc(S(=O)(=O)O)c4cccnc4c3O)cc2S(=O)(=O)O)c(S(=O)(=O)O)c1)c1cc(S(=O)(=O)O)c2cccnc2c1O [Compound 92] | 60% | 65% | – | does not affect; also recorded: without affecting |
| O=S(=O)(O)c1ccc2cc3c(cc2c1)NN(c1ccc(/C=C/c2ccc(N4Nc5cc6ccc(S(=O)(=O)O)cc6cc5N4)cc2S(=O)(=O)O)c(S(=O)(=O)O)c1)N3 [Compound 59] | 97% | 100% | without affecting | – |
